Patent publication US20150141435A1, “2-PYRIDONE ANTIMICROBIAL COMPOSITIONS” (Emergent BioSolutions, priority 2010, published 2015)
Converted amounts (≈) assume the structure as drawn. Counter-ions that a name gives are not always drawn. Like-named read-outs stand apart in the source and are kept apart here.

Tests used:
Assay type in all cases: cell-based
[1] = system: Brucella abortus ATCC 23448; experiment: microbe, parasite or virus in culture; settings: ATCC23448
A. baumannii ATCC 19606 = experiment: MIC, CLSI broth microdilution (Table 2); settings: Acinetobacter baumannii
[2] = system: Burkholderia mallei ATCC 23344; experiment: microbe, parasite or virus in culture; settings: ATCC23344
S. pneumonia ATCC 49619 = experiment: MIC, CLSI broth microdilution (Table 1); settings: Streptococcus pneumoniae
[3] = system: S. aureus BAA-1720 (MRSA, FQ-R); experiment: MIC, CLSI broth microdilution (Table 1); settings: Staphylococcus aureus, read-out: MIC S. aureus BAA-1720 (MRSA, FQ-R)
[4] = system: S. aureus ATCC 43300 (MRSA, FQ-S); experiment: MIC, CLSI broth microdilution (Table 1); settings: Staphylococcus aureus, read-out: MIC S. aureus ATCC 43300 (MRSA, FQ-S)
Yersinia pestis C092 = experiment: microbe, parasite or virus in culture
[5] = system: Burkholderia pseudomallei ATCC 23343; experiment: microbe, parasite or virus in culture; settings: ATCC23343
[6] = system: Francisella tularensis Schu S4; experiment: microbe, parasite or virus in culture; settings: SCHUS4
[7] = system: Bacillus anthracis Ames strain; experiment: microbe, parasite or virus in culture
H. influenzae ATCC 49247 = experiment: MIC, CLSI broth microdilution (Table 2); settings: Haemophilus influenzae
[8] = system: S. maltophilia ATCC 17677; experiment: MIC, CLSI broth microdilution (Table 2); settings: Stenotrophomonas maltophilia
K. pneumoniae ATCC 33495 = experiment: MIC, CLSI broth microdilution (Table 2); settings: Klebsiella pneumoniae
S. aureus ATCC 25923 = experiment: MIC, CLSI broth microdilution (Table 1); settings: Staphylococcus aureus
E. coli ATCC 25922 = experiment: MIC, CLSI broth microdilution (Table 2); settings: Escherichia coli
E. faecalis ATCC 29212 = experiment: MIC, CLSI broth microdilution (Table 1); settings: Enterococcus faecalis
E. faecium ATCC 19434 = experiment: MIC, CLSI broth microdilution (Table 1); settings: Enterococcus faecium
P. aeruginosa ATCC 27853 = experiment: MIC, CLSI broth microdilution (Table 2); settings: Pseudomonas aeruginosa
[9] = ATCC19606, read-out: MIC A. baumannii B. ATCC 19606
[10] = ATCC49619, read-out: MIC S. pneumonia ATCC 49619
[11] = ATCC49247, read-out: MIC H. influenzae ATCC 49247
[12] = ATCC17677, read-out: MIC S. maltophilia ATCC 17677
[13] = ATCC33495, read-out: MIC K. pneumoniae ATCC 33495
[14] = ATCC25923, read-out: MIC S. aureus ATCC 25923
[15] = ATCC25922, read-out: MIC E. coli ATCC 25922
[16] = ATCC29212, read-out: MIC E. faecalis ATCC 29212
[17] = ATCC19434, read-out: MIC E. faecium ATCC 19434
[18] = ATCC19606, Gram negative, MHB, 37° C., 16-20 hours, read-out: MIC A. baumannii B. ATCC 19606
[19] = ATCC49619, Gram positive, MHB, 37° C., 16-20 hours, read-out: MIC S. pneumonia ATCC 49619
[20] = Gram positive, MHB, 37° C., 16-20 hours
[21] = ATCC27853, Gram negative, MHB, 37° C., 16-20 hours, read-out: MIC P. aeruginosa ATCC 27853
[22] = ATCC49247, Gram negative, MHB, 37° C., 16-20 hours, read-out: MIC H. influenzae ATCC 49247
[23] = ATCC17677, Gram negative, MHB, 37° C., 16-20 hours, read-out: MIC S. maltophilia ATCC 17677
[24] = ATCC33495, Gram negative, MHB, 37° C., 16-20 hours, read-out: MIC K. pneumoniae ATCC 33495
[25] = ATCC25923, Gram positive, MHB, 37° C., 16-20 hours, read-out: MIC S. aureus ATCC 25923
[26] = ATCC29212, Gram positive, MHB, 37° C., 16-20 hours, read-out: MIC E. faecalis ATCC 29212
[27] = ATCC19434, Gram positive, MHB, 37° C., 16-20 hours, read-out: MIC E. faecium ATCC 19434
[28] = ATCC25922, Gram negative, MHB, 37° C., 16-20 hours, read-out: MIC E. coli ATCC 25922

| Compound | MIC [1] | MIC (A. baumannii ATCC 19606; [9]) | MIC [2] | MIC (S. pneumonia ATCC 49619; [10]) | MIC (Yersinia pestis C092) | MIC [5] | MIC [6] | MIC [7] | MIC [8, 12] | MIC (K. pneumoniae ATCC 33495; [13]) | MIC (E. coli ATCC 25922; [15]) | MIC (A. baumannii ATCC 19606; [18]) | MIC (S. pneumonia ATCC 49619; [19]) | MIC [3, 20] | MIC (P. aeruginosa ATCC 27853; [21]) | MIC [4, 20] | MIC (H. influenzae ATCC 49247; [22]) | MIC (S. aureus ATCC 25923; [25]) | MIC (E. faecalis ATCC 29212; [26]) | MIC (E. faecium ATCC 19434; [27]) | further results |
| --- | --- | --- | --- | --- | --- | --- | --- | --- | --- | --- | --- | --- | --- | --- | --- | --- | --- | --- | --- | --- | --- |
| Cc1c(-c2ccc(N)c(F)c2)c(F)cn2c(=O)c(C(=O)O)cc(C3CC3)c12 [Example 1 K salt, 8-(4-amino-3-fluoro-phenyl)-1-cyclopropyl-7-fluoro-9-methyl-4-oxo-4H-quinolizine-3-carboxylic acid] | 0.031 µg/mL | 0.064 µg/mL | 0.25 to 0.5 µg/mL | 0.016 µg/mL | 0.031 µg/mL | 0.5 µg/mL | 0.016 µg/mL | 0.004 µg/mL | 0.125 µg/mL | 0.125 µg/mL | 0.032 to 0.064 µg/mL |  |  |  |  |  |  |  |  |  | MIC [3]: 0.125 µg/mL; MIC [4]: ≤ 0.004 µg/mL; MIC (H. influenzae ATCC 49247; [11]): ≤ 0.004 µg/mL; MIC (S. aureus ATCC 25923; [14]): ≤ 0.004 µg/mL; MIC (E. faecalis ATCC 29212; [16]): 0.008 µg/mL; MIC (E. faecium ATCC 19434; [17]): 0.25 µg/mL |
| Cc1c(-c2ccc(N)c(F)c2)ccn2c(=O)c(C(=O)O)cc(C3CC3)c12 [Example 2 K salt, 8-(4-amino-3-fluoro-phenyl)-1-cyclopropyl-9-methyl-4-oxo-4H-quinolizine-3-carboxylic acid] | 0.016 to 0.031 µg/mL | 0.125 µg/mL | 0.063 µg/mL | 0.032 µg/mL | 0.031 µg/mL | 0.063 µg/mL | 0.016 µg/mL | 0.004 µg/mL | 0.125 µg/mL | 0.125 µg/mL | 0.032 µg/mL |  |  |  |  |  |  |  |  |  | MIC [3]: 0.125 µg/mL; MIC (P. aeruginosa ATCC 27853; ATCC27853, read-out: MIC P. aeruginosa ATCC 27853): 1 µg/mL; MIC [4]: 0.004 µg/mL; MIC (H. influenzae ATCC 49247; [11]): ≤ 0.004 µg/mL; MIC (S. aureus ATCC 25923; [14]): ≤ 0.004 µg/mL; MIC (E. faecalis ATCC 29212; [16]): 0.016 µg/mL; MIC (E. faecium ATCC 19434; [17]): 0.25 µg/mL |
| Cc1c(-c2cccc(N)c2)ccn2c(=O)c(C(=O)O)cc(C3CC3)c12 [Example 3 K salt, 8-(3-amino-phenyl)-1-cyclopropyl-9-methyl-4-oxo-4H-quinolizine-3-carboxylic acid] | 0.125 µg/mL |  | 0.5 to 1 µg/mL |  | 0.031 to 0.063 µg/mL | 0.25 µg/mL | 0.031 µg/mL | 0.008 µg/mL |  |  | 0.064 to 0.125 µg/mL | 0.25 µg/mL | 0.25 µg/mL | 0.5 µg/mL | 2 µg/mL | 0.016 µg/mL | 0.016 µg/mL | 0.016 µg/mL | 0.064 µg/mL | 1 µg/mL | MIC [8, 23]: 0.25 µg/mL; MIC (K. pneumoniae ATCC 33495; [24]): 0.25 µg/mL |
| Cc1c(-c2ccc(F)c(N)c2)ccn2c(=O)c(C(=O)O)cc(C3CC3)c12 [Example 8 K salt, 8-(3-amino-4-fluoro-phenyl)-1-cyclopropyl-9-methyl-4-oxo-4H-quinolizine-3-carboxylic acid] | 0.063 µg/mL | 0.064 to 0.125 µg/mL | 0.25 µg/mL | 0.125 µg/mL | 0.031 µg/mL | 0.125 µg/mL | 0.031 µg/mL | 0.008 µg/mL | 0.125 µg/mL | 0.125 µg/mL |  |  |  | 0.25 µg/mL | 2 µg/mL | 0.008 µg/mL | 0.064 µg/mL | 0.008 µg/mL | 0.032 µg/mL | 0.5 µg/mL | MIC (E. coli ATCC 25922; [28]): 0.032 to 0.064 µg/mL |
| Cc1c(-c2cc(N)cc(F)c2)ccn2c(=O)c(C(=O)O)cc(C3CC3)c12 [Example 9 K salt, 8-(3-amino-5-fluoro-phenyl)-1-cyclopropyl-9-methyl-4-oxo-4H-quinolizine-3-carboxylic acid] | 0.063 µg/mL |  | 0.125 to 0.25 µg/mL |  | 0.031 µg/mL | 0.25 µg/mL | 0.016 µg/mL | 0.008 µg/mL |  | 0.125 to 0.25 µg/mL |  | 0.125 µg/mL | 0.064 µg/mL | 0.25 µg/mL | 2 µg/mL | 0.008 µg/mL | 0.008 µg/mL | 0.008 µg/mL | 0.032 µg/mL | 0.5 µg/mL | MIC [8, 23]: 0.25 µg/mL; MIC (E. coli ATCC 25922; [28]): 0.064 µg/mL |
| Cc1c(-c2ccncc2)ccn2c(=O)c(C(=O)O)cc(C3CC3)c12 [Example 16 K salt, 1-cyclopropyl-9-methyl-4-oxo-8-(pyridin-4-yl)-4H-quinolizine-3-carboxylic acid] | 0.063 µg/mL | 0.125 µg/mL | 0.125 µg/mL | 0.125 µg/mL | 0.031 µg/mL | 0.125 µg/mL | 0.016 to 0.031 µg/mL | 0.016 µg/mL | 0.125 µg/mL | 0.125 µg/mL | 0.032 µg/mL |  |  |  |  |  |  |  |  |  | MIC [3]: 0.5 to 1 µg/mL; MIC [4]: 0.016 µg/mL; MIC (H. influenzae ATCC 49247; [11]): ≤ 0.004 µg/mL; MIC (S. aureus ATCC 25923; [14]): 0.016 µg/mL; MIC (E. faecalis ATCC 29212; [16]): 0.064 µg/mL |
| COc1ccc(-c2ccn3c(=O)c(C(=O)O)cc(C4CC4)c3c2C)cc1 [Example 47 K salt, 1-cyclopropyl-8-(4-methoxy-phenyl)-9-methyl-4-oxo-4H-quinolizine-3-carboxylic acid] |  |  |  |  |  |  |  |  |  |  |  | 0.5 µg/mL | 0.25 µg/mL | 0.5 to 1 µg/mL | 4 µg/mL | 0.016 µg/mL | 0.032 µg/mL | 0.016 µg/mL | 0.032 to 0.064 µg/mL | 1 µg/mL | MIC [8, 23]: 0.5 µg/mL; MIC (K. pneumoniae ATCC 33495; [24]): 1 to 2 µg/mL; MIC (E. coli ATCC 25922; [28]): 0.25 µg/mL |
| COc1c(N2C[C@@H]3CCCN[C@@H]3C2)c(F)cc2c(=O)c(C(=O)O)cn(C3CC3)c12 [Moxyfloxacin, reference compound] |  |  |  |  |  |  |  |  |  |  |  | 0.5 µg/mL (≈ 1.25 µM) | 0.125 µg/mL (≈ 0.311 µM) | 4 µg/mL (≈ 9.96 µM) | 2 µg/mL (≈ 4.98 µM) | 0.064 µg/mL (≈ 0.159 µM) | 0.032 µg/mL (≈ 0.0797 µM) | 0.064 µg/mL (≈ 0.159 µM) | 0.25 µg/mL (≈ 0.623 µM) | 4 µg/mL (≈ 9.96 µM) | MIC [8, 23]: 0.125 µg/mL (≈ 0.311 µM); MIC (K. pneumoniae ATCC 33495; [24]): 0.125 µg/mL (≈ 0.311 µM); MIC (E. coli ATCC 25922; [28]): 0.032 µg/mL (≈ 0.0797 µM) |
